Experimental data taken from patent US20250051347A1, “BIFUNCTIONAL CHIMERIC HETEROCYCLIC COMPOUND AND USE THEREOF AS ANDROGEN RECEPTOR DEGRADER” (Hinova Pharmaceuticals, Inc., priority 2021, published 2025).

target: T1, androgen receptor (AR) splicing variant AR-v7 (Homo sapiens, UniProt P10275); assay: Degradation activity on androgen receptor splicing variant AR-v7 in 22RV1 cells (ELISA); assay type: cell-based; conditions: AR-v7 degradation in 22RV1 cells, 48 h, class symbols
T1 construct: The degradation activity of compounds on AR-v7 in 22RV1 cells; host or cells: 22RV1 cells
T1 sequence (P10275 1-644 isoform P10275-3): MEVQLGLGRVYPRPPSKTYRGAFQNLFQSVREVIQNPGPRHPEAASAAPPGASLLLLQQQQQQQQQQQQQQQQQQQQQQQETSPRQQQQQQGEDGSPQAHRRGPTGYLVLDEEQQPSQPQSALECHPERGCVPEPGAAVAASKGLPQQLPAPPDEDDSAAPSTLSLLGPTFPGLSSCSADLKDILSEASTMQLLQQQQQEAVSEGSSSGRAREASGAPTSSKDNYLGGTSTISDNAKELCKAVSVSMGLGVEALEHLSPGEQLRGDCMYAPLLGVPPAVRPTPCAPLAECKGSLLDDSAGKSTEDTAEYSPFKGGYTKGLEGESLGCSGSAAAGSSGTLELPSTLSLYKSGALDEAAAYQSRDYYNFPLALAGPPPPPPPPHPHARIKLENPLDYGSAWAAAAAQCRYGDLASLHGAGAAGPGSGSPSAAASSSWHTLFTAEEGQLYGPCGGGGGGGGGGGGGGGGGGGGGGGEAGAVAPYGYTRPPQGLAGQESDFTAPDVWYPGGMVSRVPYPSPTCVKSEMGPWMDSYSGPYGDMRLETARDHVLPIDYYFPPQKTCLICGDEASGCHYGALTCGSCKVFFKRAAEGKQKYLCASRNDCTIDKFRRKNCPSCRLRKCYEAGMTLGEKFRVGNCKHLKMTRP

SMILES | DC50 [nM]
CC(O)c1nccc(COc2ccc(C(C)(C)c3ccc(O[C@H]4CC[C@H](Nc5ccc6c(c5)C(=O)N(C5CCC(=O)NC5=O)C6=O)CC4)cc3)cc2)n1 (stereo partly drawn) [Example 354, 2-(2,6-dioxopiperidin-3-yl)-5-(((1r,4r)-4-(4-(2-(4-((2-(1-hydroxylethyl)pyrimidin-4-yl)methoxy)phenyl)isopropan-2-yl)phenoxy)cyclohexyl)amino)isoindolin-1,3-dione] | 1000 to 5000
Cc1noc(-c2nccc(COc3ccc(C(C)(C)c4ccc(O[C@H]5C[C@H](Nc6ccc7c(c6)C(=O)N(C6CCC(=O)NC6=O)C7=O)C5)cc4)cc3)n2)n1 (stereo partly drawn) [Example 250] | 11 to 100
CC(C)(c1ccc(Oc2nc(-n3ccnn3)ccc2F)cc1)c1ccc(O[C@H]2C[C@H](Nc3ccc4c(c3)C(=O)N(C3CCC(=O)NC3=O)C4=O)C2)cc1 (stereo partly drawn) [Example 319] | 11 to 100
CC(C)(c1ccc(OCC#Cc2ccc3c(c2)C(=O)N(C2CCC(=O)NC2=O)C3=O)cc1)c1ccc(OCc2ccnc(N3CC4(COC4)C3)n2)cc1 (stereo not drawn) [Example 310] | 101 to 1000
Cn1nccc1-c1nccc(COc2ccc(C(C)(C)c3ccc(O[C@H]4C[C@@H](Nc5ccc6c(c5)C(=O)N(C5CCC(=O)NC5=O)C6=O)C4)cc3)cc2)n1 (stereo partly drawn) [Example 417] | 11 to 100
CC(C)(c1ccc(CCNc2ccc3c(c2)C(=O)N(C2CCC(=O)NC2=O)C3=O)cc1)c1ccc(OCc2ccnc(N3CC4(COC4)C3)n2)cc1 (stereo not drawn) [Example 318, 5-((4-(2-(4-((2-(2-oxa-6-azaspiro[3.3]heptan-6-yl)pyrimidin-4-yl)methoxy)phenyl)propan-2-yl)phenylethyl)amino)-2-(2,6-dioxopiperidin-3-yl)isoindolin-1,3-dione] | 101 to 1000
CC(C)(c1ccc(OCc2ccnc(N3CC4(COC4)C3)n2)cc1)c1ccc(OC[C@@H]2CCN2Cc2ccc3c(c2)C(=O)N(C2CCC(=O)NC2=O)C3=O)cc1 (stereo partly drawn) [Example 566] | 1000 to 5000
CC(C)(c1ccc(Oc2ccc(-n3nccn3)nc2)cc1)c1ccc(O[C@H]2C[C@@H](Nc3ccc4c(c3)C(=O)N(C3CCC(=O)NC3=O)C4=O)C2)cc1 (stereo partly drawn) [Example 540] | 11 to 100
CC1CN(c2nccc(COc3ccc(C(C)(C)c4ccc(OCCCCCCCCOCCCCNc5ccc6c(c5)C(=O)N(C5CCC(=O)NC5=O)C6=O)cc4)cc3)n2)C1 (stereo not drawn) [Example 63] | 1000 to 5000
CC1(CNc2nccc(COc3ccc(C(C)(C)c4ccc(O[C@H]5C[C@@H](Nc6ccc7c(c6)C(=O)N(C6CCC(=O)NC6=O)C7=O)C5)cc4)cc3)n2)COC1 (stereo partly drawn) [Example 269] | 101 to 1000
CC(C)(c1ccc(OCCCCNc2cccc3c2C(=O)N(C2CCC(=O)NC2=O)C3=O)cc1)c1ccc(OCc2ccnc(NS(C)(=O)=O)n2)cc1 (stereo not drawn) [Example 10, N-(4-((4-(2-(4-(4-((2-(2,6-dioxopiperidin-3-yl)-1,3-dioxoisoindolin-yl)amino)butoxy)phenyl)propan-2-yl)phenoxy)methyl)pyrimidin-2-yl)methanesulfonamide] | 1000 to 5000
CC(=O)c1nccc(COc2ccc(C(C)(C)c3ccc(OCC4CN(c5ccc6c(c5)C(=O)N(C5CCC(=O)NC5=O)C6=O)C4)cc3)cc2)n1 (stereo not drawn) [Example 485, 5-(3-((4-(2-(4-((2-acetylpyrimidin-4-yl)methoxy)phenyl)propan-2-yl)phenoxy)methyl)azetidin-1-yl)-2-(2,6-dioxopiperidin-3-yl)isoindolin-1,3-dione] | 11 to 100
Cc1nc(-c2ccc(Oc3ccc(C(C)(C)c4ccc(O[C@H]5C[C@@H](Nc6ccc7c(c6)C(=O)N(C6CCC(=O)NC6=O)C7=O)C5)cc4)cc3)cn2)no1 (stereo partly drawn) [Example 597, 2-(2,6-dioxopiperidin-3-yl)-5-(((1s,3s)-3-(4-(2-(4-((6-(5-methyl-1,2,4-oxadiazol-3-yl)pyridin-3-yl)oxy)phenyl)propan-2-yl)phenoxy)cyclobutyl)amino)isoindolin-1,3-dione] | 11 to 100
Cc1nc(-c2ccc(Oc3ccc(C(C)(C)c4ccc(OC5CC(Nc6ccc7c(c6)C(=O)N(C6CCC(=O)NC6=O)C7=O)C5)cc4)cc3)cn2)no1 (stereo not drawn) [Example 543, 2-(2,6-dioxopiperidin-3-yl)-5-(1s,3s)-3-(4-(2-(4-(6-(5-methyl-1,2,4-oxadiazol-3-yl)pyridin-3-yl)oxy)phenyl)propan-2-yl)phenoxy)cyclobutyl)amino) isoindolin-1,3-dione] | 11 to 100
Cc1nc(-c2ncc(Oc3ccc(C(C)(C)c4ccc(O[C@H]5C[C@H](Nc6ccc7c(c6)C(=O)N(C6CCC(=O)NC6=O)C7=O)C5)cc4)cc3)cc2C(F)(F)F)no1 (stereo partly drawn) [Example 211] | 11 to 100
CC(=O)c1nccc(COc2ccc(C(C)(C)c3ccc(OC4CCC5(C4)CN(c4ccc6c(c4)C(=O)N(C4CCC(=O)NC4=O)C6=O)C5)cc3)cc2)n1 (stereo not drawn) [Example 490] | 101 to 1000
CN1CCC(Oc2nccc(COc3ccc(C(C)(C)c4ccc(O[C@H]5C[C@@H](Nc6ccc7c(c6)C(=O)N(C6CCC(=O)NC6=O)C7=O)C5)cc4)cc3)n2)CC1 (stereo partly drawn) [Example 234] | 11 to 100
Cc1nc(-c2nccc(Oc3ccc(C(C)(C)c4ccc(O[C@H]5C[C@@H](Nc6ccc7c(c6)C(=O)N(C6CCC(=O)NC6=O)C7=O)C5)cc4)cc3)n2)no1 (stereo partly drawn) [Example 292] | 11 to 100
CC(C)(c1ccc(OCc2ccnc(N3CCN(CCO)CC3)n2)cc1)c1ccc(O[C@H]2C[C@@H](Nc3ccc4c(c3)C(=O)N(C3CCC(=O)NC3=O)C4=O)C2)cc1 (stereo partly drawn) [Example 241, 2-(2,6-dioxopiperidin-3-yl)-5-(((1s,3s)-3-(4-(2-(4-((2-(4-(2-hydroxylethyl)piperazin-1-yl)pyrimidin-4-yl)methoxy)phenyl)propan-2-yl)phenoxy)cyclobutyl)amino)isoindolin-1,3-dione] | 11 to 100
C[C@@H]1CN(c2nccc(COc3ccc(C(C)(C)c4ccc(O[C@H]5C[C@@H](Nc6ccc7c(c6)C(=O)N(C6CCC(=O)NC6=O)C7=O)C5)cc4)cc3)n2)[C@H](C)CN1C (stereo partly drawn) [Example 409] | 11 to 100
CC(C)(c1ccc(OCc2ccnc(N3CC4(COC4)C3)n2)cc1)c1ccc(OC[C@H]2CCCN2c2ccc3c(c2)C(=O)N(C2CCC(=O)NC2=O)C3=O)cc1 (stereo partly drawn) [Example 314, 5-((R)-2-((4-(2-(4-((2-(2-oxa-6-azaspiro[3.3]heptan-6-yl)pyrimidin-4-yl)methoxy)phenyl)propan-2-yl)phenoxy)methyl)pyrrolidin-1-yl)-2-(2,6-dioxopiperidin-3-yl)isoindolin-1,3-dione] | 1000 to 5000
Cc1nc(-c2ccnc(Oc3ccc(C(C)(C)c4ccc(O[C@H]5C[C@H](Nc6ccc7c(c6)C(=O)N(C6CCC(=O)NC6=O)C7=O)C5)cc4)cc3)c2)no1 (stereo partly drawn) [Example 474] | 11 to 100
COc1cnc(Oc2ccc(C(C)(C)c3ccc(O[C@H]4C[C@H](Nc5ccc6c(c5)C(=O)N(C5CCC(=O)NC5=O)C6=O)C4)cc3)cc2)cn1 (stereo partly drawn) [Example 552, 2-(2,6-dioxopiperidin-3-yl)-5-(((1r,3r)-3-(4-(4-((5-methoxypyrazin-2-yl)oxy)phenyl)propan-2-yl)phenoxy)amino)isoindolin-1,3-dione] | 11 to 100
CC(C)(c1ccc(OCCCCCCCCOCCCCNc2ccc3c(c2)C(=O)N(C2CCC(=O)NC2=O)C3=O)cc1)c1ccc(OCc2cnc(NS(C)(=O)=O)nc2)cc1 (stereo not drawn) [Example 51] | 101 to 1000

same assay, conditions: AR-v7 degradation in 22RV1 cells, 48 h, numeric values

SMILES | DC50 [nM]
CC(C)(c1ccc(OCCCCCCCCCN2CCN(C3CN(c4ccc5c(c4)C(=O)N(C4CCC(=O)NC4=O)C5=O)C3)CC2)cc1)c1ccc(OCc2ccnc(NS(C)(=O)=O)n2)cc1 (stereo not drawn) [Example 5, N-(4-((4-(2-(4-((9-(4-(1-(2-(2,6-dioxopiperidin-3-yl)-1,3-dioxoisoindolin-5-yl)azetidin-3-yl)piperazin-1-yl)nonyl)oxy)phenyl)propan-2-yl)phenoxy)methyl)pyrimidin-2-yl)methanesulfonamide] | > 10000
CC(C)(c1ccc(OCc2ccnc(NS(C)(=O)=O)n2)cc1)c1ccc(OC[C@H]2CC[C@H](CN3CCC(CN4CCC5(CC4)CN(c4ccc6c(c4)C(=O)N(C4CCC(=O)NC4=O)C6=O)C5)CC3)CC2)cc1 (stereo partly drawn) [Example 39] | > 10000
CC(C)(c1ccc(OCc2ccnc(NS(C)(=O)=O)n2)cc1)c1ccc(OC2CCN(c3ccc4c(c3)C(=O)N(C3CCC(=O)NC3=O)C4=O)CC2)cc1 (stereo not drawn) [Example 34, N-(4-((4-(2-(4-((1-(2-(2,6-dioxopiperidin-3-yl)-1,3-dioxoisoindolin-yl)piperidin-4-yl)oxy)phenyl)propan-2-yl)phenoxy)methyl)pyrimidin-2-yl)methanesulfonamide] | > 10000
CC(=O)c1nccc(COc2ccc(C(C)(C)c3ccc(OCC4CCCN(c5ccc6c(c5)C(=O)N(C5CCC(=O)NC5=O)C6=O)C4)cc3)cc2)n1 (stereo not drawn) [Example 304, 5-(3-((4-(2-(4-((2-acetylpyrimidin-4-yl)methoxy)phenyl)propan-2-yl)phenoxy)methyl)piperidin-1-yl)-2-(2,6-dioxopiperidin-3-yl)isoindolin-1,3-dione] | > 2500
CC(=O)c1nccc(COc2ccc(C(C)(C)c3ccc(OCC4CCN(c5ccc6c(c5)C(=O)N(C5CCC(=O)NC5=O)C6=O)CC4)cc3)cc2)n1 (stereo not drawn) [Example 108, 5-(4-((4-(2-(4-((2-acetylpyrimidin-4-yl)methoxy)phenyl)propan-2-yl)phenoxy)methyl)piperidin-1-yl)-2-(2,6-dioxopiperidin-3-yl)isoindol-1,3-dione] | > 10000
CN1CCC2(CCN(c3nccc(COc4ccc(C(C)(C)c5ccc(OCCCCCCCCOCCCCNc6ccc7c(c6)C(=O)N(C6CCC(=O)NC6=O)C7=O)cc5)cc4)n3)C2)C1 (stereo not drawn) [Example 384] | > 5000
